Legend:
Raw 264.7 cells = assay: Nitric oxide (NO) production inhibitory activity in LPS-stimulated Raw 264.7 cells (Griess reagent); assay type: cell-based; parameters: NO inhibition rate (%): concentration or dose not given beside the values; conditions: for NO: Raw 264.7 cells, LPS 100 ng/ml, sample concentration not given; for NO inhibition rate (%): vs LPS-only group
Experimental: [Measurement of Anti-Inflammatory Effect in Raw 264.7 Cells] Experimental Example 1. Confirmation of Nitric Oxide Production Inhibitory Activity Nitric oxide (NO) measurement was measuring the amount of nitric oxide (NO) in the supernatant of cells as nitrite and nitrate. The safe form after oxidation from nitrite to nitrate was measured using a griess reagent (Sigma, USA). In a […], 3×10^5 cells were cultured for 24 hours. […] Then, all wells except the normal group were stimulated by adding 100 ng/ml Lipopolysaccharide (LPS). After reacting with the griess reagent for 5 minutes, the absorbance was measured at 540 nm. The calibration curve was prepared using sodium nitrite solution, and the concentration of nitrite was calculated through absorbance. The NO inhibition rate was evaluated by a method of comparing with the group treated only with LPS according to Equation 1 below. The result was shown in the following Tables 7, 8, 9, 10, 11 and 12 and FIGS. 2, 3, 4 and 5. NO inhibition rate (%)=100−[(NO production amount of sample addition group*×100)/NO production amount of sample non-addition group*] [Equation 1] *Lipopolysaccharide (LPS) treatment group

[1] = test system: indomethacin-induced gastric ulcer; assay: Gastric ulcer index / inhibition rate in indomethacin-induced animal model; assay type: in vivo, rats; conditions: for Inhibition rate (%): gastric ulcer, rats, stomach excised 5 h after; for gastric ulcer inhibition rate compared to Stillen and Rebamipide (in words) / level of gastric ulcer inhibition rate despite the very small amount (in words): indomethacin-induced rats, summary of Table 13 and FIG. 7
Text: [Measurement of gastric ulcer inhibitory effect in animals]
Experimental Example 2. Confirmation of Gastric Ulcer Inhibition Rate
Evaluation of Gastric Ulcer Index in Indomethacin-Induced Animal Model
For test animals, 7-week-old male rats without specific pathogens (SPF) were randomly distributed to each group by a randomized method so that the average body weight was distributed as evenly as possible after the adaptation period (7 days). The administration route was single administration of artemisia extract, and rebamipide and ethyl acetate pretreated water extract of Cinnamomum cassia, fraction (N2-1), 3,4-dihydroxybenzaldehyde, ferulic acid, 4-hydroxycinnamaldehyde, as oral administration, respectively, and the dose was calculated and administered as 10 mL/Kg based on the body weight measured on the day of administration. All animals were fasted 48 hours before administration of the test substance and control drug, and then each test substance and control drug were orally administered, and at 30 minutes after administration, indomethacin prepared in advance was orally administered at a dose of 80 mg/kg. After anesthesia with diethyl ether at 5 hours after administration of indomethacin, the stomach was excised and the gastric mucosa was photographed with a digital camera. The area of the damaged part was analyzed using ImageJ software (NIH, Bethesda, MD). The gastric ulcer index was measured according to the following equation.
Gastric ulcer index (%)=(damaged area/total area)×100 [Equation 2]

[2] = Prep-HPLC purified products from N2-1
[3] = single oral dose 1.5 mg/kg 30 min before indomethacin 80 mg/kg p.o.
[4] = Prep-HPLC purified products from R2-2

| SMILES | NO (Raw 264.7 cells; [2]) [µM] | NO inhibition rate (%) (Raw 264.7 cells; [2]) | gastric ulcer inhibition rate compared to Stillen and Rebamipide (in words) [1] | level of gastric ulcer inhibition rate despite the very small amount (in words) [1] | NO (Raw 264.7 cells; [4]) [µM] | NO inhibition rate (%) (Raw 264.7 cells; [4]) | also measured |
| --- | --- | --- | --- | --- | --- | --- | --- |
| COc1cc(/C=C/C(=O)O)ccc1O [Compound A, ferulic acid] | 49.57 | 0 | excellent gastric ulcer inhibition rate | very high level of gastric ulcer inhibition rate | – | – | Inhibition rate (%) [1, 3]: 61.8% |
| O=C/C=C/c1ccc(O)cc1 [Compound B, 4-hydroxycinnamaldehyde] | 35.18 | 29 | excellent gastric ulcer inhibition rate | very high level of gastric ulcer inhibition rate | – | – | Inhibition rate (%) ([1]; single oral dose 2.0 mg/kg 30 min before indomethacin 80 mg/kg p.o.): 46.1% |
| O=C(O)CCc1ccccc1O [Compound C, 3-(2-hydroxyphenyl)propanoic acid] | 48.54 | 0 | – | – | – | – | – |
| O=Cc1ccc(O)c(O)c1 [Compound D, 3,4-dihydroxybenzaldehyde] | – | – | excellent gastric ulcer inhibition rate | very high level of gastric ulcer inhibition rate | 44.41 | 10 | Inhibition rate (%) [1, 3]: 61.3% |
| COc1cc(C(=O)O)cc(OC)c1O [Compound E, syringic acid] | – | – | – | – | 47.83 | 0 | – |
| COc1cc(C(=O)O)ccc1O [Compound F, vanillic acid] | – | – | – | – | 49.88 | 0 | – |
| O=C(NC(Cc1cc(=O)[nH]c2ccccc12)C(=O)O)c1ccc(Cl)cc1 (stereo not shown) [Rebamipide, reference compound] | – | – | – | – | – | – | Inhibition rate (%) ([1]; single oral dose 30 mg/kg 30 min before indomethacin 80 mg/kg p.o.): 21.5% |
